The record followed here is the Kinase Knowledgebase extract (Sharma et al. 2016).

Molecules are shown by their SMILES.

The target in one assay is CDK2 (human) (UniProt P24941). As to the kind of experiment: Enzyme Assay.
Conditions: not given
A word on the Ki: it is the equilibrium dissociation constant of an inhibitor or competing ligand from its target. `CC(=O)/C=C/C(=O)N1CCC(Nc2nc(N)c(C(=O)c3c(F)cccc3F)s2)CC1` showed a Ki of 500 nM.
Turning to `Nc1nc(NC2CN(C(=O)c3ccc([N+](=O)[O-])cc3)C2)sc1C(=O)c1c(F)cccc1F`, the Ki stood at 360 nM. The Ki values of the last two compounds are within 1.5-fold of each other.

Still in this assay, the particulars now being: concentration not given here.
In general, inhibition refers to the relative decrease from the control value, in per cent. On to `Nc1nc(NC2CCN(C(=O)OCc3ccccc3)CC2)sc1C(=O)c1c(F)cccc1F`, for which the inhibition was -32%.
Turning to `Nc1nc(NC2CCN(C(=O)CCc3ccc(O)cc3)CC2)sc1C(=O)c1c(F)cccc1F`, the inhibition amounted to 13%.
The same measure, in the same setting: under `CC(=O)/C=C/C(=O)N1CCC(Nc2nc(N)c(C(=O)c3c(F)cccc3F)s2)CC1` stands 5%; under `CN(C)c1ccc(N=Nc2ccc(S(=O)(=O)N3CCC(Nc4nc(N)c(C(=O)c5c(F)cccc5F)s4)CC3)cc2)cc1`, -20%.
`Nc1nc(NC2CCN(C(=O)CSc3ccccc3F)CC2)sc1C(=O)c1c(F)cccc1F`: the inhibition was determined as 75%.
Same read-out and setting: under `CC(=O)c1ccc(O)c(C(=O)N2CCC(Nc3nc(N)c(C(=O)c4c(F)cccc4F)s3)CC2)c1` stands 9%; under `Nc1nc(NC2CCN(C(=O)CCN3CCCCC3)CC2)sc1C(=O)c1c(F)cccc1F`, 15%.
As to `CCC(O)(CC)C(=O)N1CCC(Nc2nc(N)c(C(=O)c3c(F)cccc3F)s2)CC1`, the inhibition came out at 17%.
As for `Cc1cc(C)cc(CC(=O)N2CCC(Nc3nc(N)c(C(=O)c4c(F)cccc4F)s3)CC2)c1`, the inhibition was found to be 75%.
`CC(=O)Oc1cccc(C(=O)N2CCC(Nc3nc(N)c(C(=O)c4c(F)cccc4F)s3)CC2)c1`: the inhibition worked out at 56%.
Regarding `Nc1nc(NC2CCN(C(=O)CC3CCCC3)CC2)sc1C(=O)c1c(F)cccc1F`, the inhibition was -20%.
As for `CCCCC(=O)N1CCC(Nc2nc(N)c(C(=O)c3c(F)cccc3F)s2)CC1`, the inhibition turned out to be 48%.
In the case of `COC(=O)CC(=O)N1CCC(Nc2nc(N)c(C(=O)c3c(F)cccc3F)s2)CC1`, the inhibition is -24%.
In the case of `Nc1nc(NC2CCN(C(=O)c3cccnc3Sc3ccc(Cl)cc3)CC2)sc1C(=O)c1c(F)cccc1F`, the inhibition is -73%.
As for `Nc1nc(NC2CCN(C(=O)c3ccc(-n4cccc4)nc3)CC2)sc1C(=O)c1c(F)cccc1F`, the inhibition was 61%.
Regarding `CC(C)[C@@H]1CC[C@@H](C)C[C@H]1OC(=O)N1CCC(Nc2nc(N)c(C(=O)c3c(F)cccc3F)s2)CC1`, the inhibition is -45%.
With `CC(C)CCC(=O)N1CCC(Nc2nc(N)c(C(=O)c3c(F)cccc3F)s2)CC1`, the inhibition is 27%.
Regarding `Nc1nc(NC2CCN(C(=O)c3ccc(C(F)(F)F)cc3C(F)(F)F)CC2)sc1C(=O)c1c(F)cccc1F`, the inhibition came to 0%.
For the compound `Nc1nc(NC2CCN(C(=O)C(O)c3ccccc3Cl)CC2)sc1C(=O)c1c(F)cccc1F` (stereo unspecified), the inhibition was determined as 51%.
As for `Nc1nc(NC2CCN(C(=O)c3csc([N+](=O)[O-])c3)CC2)sc1C(=O)c1c(F)cccc1F`, the inhibition was 48%.
Regarding `CC(C)CCCC(=O)N1CCC(Nc2nc(N)c(C(=O)c3c(F)cccc3F)s2)CC1`, the inhibition was 71%.
As for `COc1cscc1C(=O)N1CCC(Nc2nc(N)c(C(=O)c3c(F)cccc3F)s2)CC1`, the inhibition amounted to 58%.
Same read-out and setting: the figure for `CC(=O)SC[C@@H](C)C(=O)N1CCC(Nc2nc(N)c(C(=O)c3c(F)cccc3F)s2)CC1` is 46%; for `Nc1nc(NC2CCN(C(=O)c3ccccc3C(F)(F)F)CC2)sc1C(=O)c1c(F)cccc1F` it is -12%; for `Nc1nc(NC2CCN(C(=O)c3ccccc3OC(F)(F)F)CC2)sc1C(=O)c1c(F)cccc1F` it is -6%.
For the compound `Nc1nc(NC2CCN(C(=O)C3(c4ccccc4)CCCC3)CC2)sc1C(=O)c1c(F)cccc1F`, the inhibition was -13%.
Turning to `Nc1nc(NC2CCN(C(=O)C3CCCO3)CC2)sc1C(=O)c1c(F)cccc1F` (stereo unspecified), the inhibition worked out at 27%.
Take `COc1c(C)cc(C(=O)N2CCC(Nc3nc(N)c(C(=O)c4c(F)cccc4F)s3)CC2)cc1C`: the inhibition worked out at 39%.
Still for that read-out and setting: the figure for `Cc1ccc(OCC(=O)N2CCC(Nc3nc(N)c(C(=O)c4c(F)cccc4F)s3)CC2)c(C)c1` is 51%.
`CCCC/C=C/CC(=O)N1CCC(Nc2nc(N)c(C(=O)c3c(F)cccc3F)s2)CC1`: the inhibition is 22%.
As for `CC(C)c1cc(C(C)C)c(S(=O)(=O)N2CCC(Nc3nc(N)c(C(=O)c4c(F)cccc4F)s3)CC2)c(C(C)C)c1`, the inhibition is -17%.
Take `CC1(C(=O)N2CCC(Nc3nc(N)c(C(=O)c4c(F)cccc4F)s3)CC2)CCCCC1`: the inhibition is -5%.
`Nc1nc(NC2CCN(C(=O)c3ccoc3)CC2)sc1C(=O)c1c(F)cccc1F`: the inhibition came to 34%.
As for `CSc1ccccc1C(=O)N1CCC(Nc2nc(N)c(C(=O)c3c(F)cccc3F)s2)CC1`, the inhibition stood at 40%.
On to `CCCCC(O)C(=O)N1CCC(Nc2nc(N)c(C(=O)c3c(F)cccc3F)s2)CC1` (stereo unspecified), for which the inhibition worked out at 16%.
With `C[C@@H](C(=O)N1CCC(Nc2nc(N)c(C(=O)c3c(F)cccc3F)s2)CC1)c1ccccc1`, the inhibition worked out at 21%.
Consider `C[C@](O)(C(=O)N1CCC(Nc2nc(N)c(C(=O)c3c(F)cccc3F)s2)CC1)c1ccccc1`, for which the inhibition came out at 77%.
For the compound `Cc1cccc(C(=O)N2CCC(Nc3nc(N)c(C(=O)c4c(F)cccc4F)s3)CC2)n1`, the inhibition turned out to be 60%.
`Nc1nc(NC2CCN(C(=O)c3c(F)cccc3F)CC2)sc1C(=O)c1c(F)cccc1F`: the inhibition is -20%.
As for `C=CCC/C=C/C(=O)N1CCC(Nc2nc(N)c(C(=O)c3c(F)cccc3F)s2)CC1`, the inhibition is 69%.
As for `Nc1nc(NC2CCN(C(=O)COc3ccc([N+](=O)[O-])cc3)CC2)sc1C(=O)c1c(F)cccc1F`, the inhibition amounted to 60%.
On the same count and under the same terms, the figure for `Nc1nc(NC2CCN(C(=O)/C=C/c3cccc(Cl)c3)CC2)sc1C(=O)c1c(F)cccc1F` is 24%; for `CCOCC(=O)N1CCC(Nc2nc(N)c(C(=O)c3c(F)cccc3F)s2)CC1` it is 62%; for `CC(=O)N1CCC(C(=O)N2CCC(Nc3nc(N)c(C(=O)c4c(F)cccc4F)s3)CC2)CC1` it is 36%.
Take `Cc1cc(F)ccc1OCC(=O)N1CCC(Nc2nc(N)c(C(=O)c3c(F)cccc3F)s2)CC1`: the inhibition stood at 80%.
`COc1ccccc1C(O)C(=O)N1CCC(Nc2nc(N)c(C(=O)c3c(F)cccc3F)s2)CC1` (stereo unspecified): the inhibition came to 27%.
With `COC(=O)c1cccc(C(=O)N2CCC(Nc3nc(N)c(C(=O)c4c(F)cccc4F)s3)CC2)c1`, the inhibition turned out to be 65%.
`Cc1cccc(OCC(=O)N2CCC(Nc3nc(N)c(C(=O)c4c(F)cccc4F)s3)CC2)c1C`: the inhibition came out at 40%.
Turning to `Nc1nc(NC2CCN(C(=O)c3ccc(-c4ccccc4)cc3)CC2)sc1C(=O)c1c(F)cccc1F`, the inhibition was -11%.
On the same count and under the same terms, the figure for `CC[C@@H](C(=O)N1CCC(Nc2nc(N)c(C(=O)c3c(F)cccc3F)s2)CC1)c1ccccc1` is 41%; for `C[C@H](O)C(=O)N1CCC(Nc2nc(N)c(C(=O)c3c(F)cccc3F)s2)CC1` it is 67%.
Consider `Cc1cc(C)c(C(=O)N2CCC(Nc3nc(N)c(C(=O)c4c(F)cccc4F)s3)CC2)cc1C`, for which the inhibition is 44%.
Turning to `N#Cc1ccc(/C=C/C(=O)N2CCC(Nc3nc(N)c(C(=O)c4c(F)cccc4F)s3)CC2)cc1`, the inhibition is 41%.
Take `CCCCCC#CC(=O)N1CCC(Nc2nc(N)c(C(=O)c3c(F)cccc3F)s2)CC1`: the inhibition came to 62%.
For the compound `Cc1cc(C)c(S(=O)(=O)N2CCC(Nc3nc(N)c(C(=O)c4c(F)cccc4F)s3)CC2)c(C)c1`, the inhibition was -14%.
On the same count and under the same terms, the figure for `C#CCCC(=O)N1CCC(Nc2nc(N)c(C(=O)c3c(F)cccc3F)s2)CC1` is 52%.
Take `CN(C(=O)N1CCC(Nc2nc(N)c(C(=O)c3c(F)cccc3F)s2)CC1)c1ccccc1`: the inhibition is -7%.
For `COc1ccc(CC(=O)N2CCC(Nc3nc(N)c(C(=O)c4c(F)cccc4F)s3)CC2)cc1OC`, the inhibition came out at 55%.
Take `COc1cc(C)ccc1C(=O)N1CCC(Nc2nc(N)c(C(=O)c3c(F)cccc3F)s2)CC1`: the inhibition worked out at 59%.
Regarding `Nc1nc(NC2CCN(C(=O)CCOc3ccc(F)cc3)CC2)sc1C(=O)c1c(F)cccc1F`, the inhibition came out at 61%.
As for `CCOc1ccc(/C=C/C(=O)N2CCC(Nc3nc(N)c(C(=O)c4c(F)cccc4F)s3)CC2)cc1`, the inhibition turned out to be 34%.
In the case of `Nc1nc(NC2CCN(C(=O)C(=O)c3c[nH]c4ccccc34)CC2)sc1C(=O)c1c(F)cccc1F`, the inhibition was -31%.
`Nc1nc(NC2CCN(C(=O)Cc3ccc(Cl)cc3)CC2)sc1C(=O)c1c(F)cccc1F`: the inhibition was found to be 58%.
Take `CCOc1cccc(C(=O)N2CCC(Nc3nc(N)c(C(=O)c4c(F)cccc4F)s3)CC2)c1`: the inhibition was 75%.
`CC(C)(C(=O)N1CCC(Nc2nc(N)c(C(=O)c3c(F)cccc3F)s2)CC1)c1ccccc1`: the inhibition is 33%.
On to `Nc1nc(NC2CCN(C(=O)[C@@H]3CCC(=O)O3)CC2)sc1C(=O)c1c(F)cccc1F`, for which the inhibition was determined as 95%.
Regarding `CN(C)N=Nc1ccccc1C(=O)N1CCC(Nc2nc(N)c(C(=O)c3c(F)cccc3F)s2)CC1`, the inhibition stood at 43%.
With `Nc1nc(NC2CCN(C(=O)c3cccnc3)CC2)sc1C(=O)c1c(F)cccc1F`, the inhibition was 28%.
In the case of `C=CCC(C)C(=O)N1CCC(Nc2nc(N)c(C(=O)c3c(F)cccc3F)s2)CC1` (stereo unspecified), the inhibition is 21%.
As for `CC(=O)Oc1c(C)cccc1C(=O)N1CCC(Nc2nc(N)c(C(=O)c3c(F)cccc3F)s2)CC1`, the inhibition is 50%.
On to `C=CCC(=O)N1CCC(Nc2nc(N)c(C(=O)c3c(F)cccc3F)s2)CC1`, for which the inhibition was found to be 15%.
For the compound `Nc1nc(NC2CCN(C(=O)Cc3c[nH]c4ccc(F)cc34)CC2)sc1C(=O)c1c(F)cccc1F`, the inhibition amounted to 66%.
The same measure, in the same setting: under `CC1CCC(C(=O)N2CCC(Nc3nc(N)c(C(=O)c4c(F)cccc4F)s3)CC2)CC1` (stereo unspecified) stands 59%.
For `CC(C)c1ccc(CC(=O)N2CCC(Nc3nc(N)c(C(=O)c4c(F)cccc4F)s3)CC2)cc1`, the inhibition came to 85%.
On the same count and under the same terms, under `Cc1ccc(OCC(=O)N2CCC(Nc3nc(N)c(C(=O)c4c(F)cccc4F)s3)CC2)cc1C` stands 52%; under `Nc1nc(NC2CCN(C(=O)[C@H](O)Cc3ccccc3)CC2)sc1C(=O)c1c(F)cccc1F`, 42%.
With `Nc1nc(NC2CCN(C(=O)CCc3cccc(O)c3)CC2)sc1C(=O)c1c(F)cccc1F`, the inhibition was found to be 40%.
As to `CCC(C)(C)C(=O)N1CCC(Nc2nc(N)c(C(=O)c3c(F)cccc3F)s2)CC1`, the inhibition is 32%.
For `Nc1nc(NC2CCN(C(=O)c3ccc(CO)cc3)CC2)sc1C(=O)c1c(F)cccc1F`, the inhibition was determined as 47%.
